SMILES strings stand for the structures. Converted amounts (≈) assume the structure as drawn. The source made the active and inactive calls. The calls are words filed in the database; no cut-off is given here. Some results are limits rather than exact numbers.

In general, EC50 refers to the concentration that produces a half-maximal response. The term half-life denotes how long it takes for the measured level to halve. In general, solubility refers to the dissolved amount per volume that the medium holds.

Data set [1] addresses T1, Bile acid receptor (Homo sapiens, UniProt Q96RI1).
T1 sequence (Q96RI1 whole entry): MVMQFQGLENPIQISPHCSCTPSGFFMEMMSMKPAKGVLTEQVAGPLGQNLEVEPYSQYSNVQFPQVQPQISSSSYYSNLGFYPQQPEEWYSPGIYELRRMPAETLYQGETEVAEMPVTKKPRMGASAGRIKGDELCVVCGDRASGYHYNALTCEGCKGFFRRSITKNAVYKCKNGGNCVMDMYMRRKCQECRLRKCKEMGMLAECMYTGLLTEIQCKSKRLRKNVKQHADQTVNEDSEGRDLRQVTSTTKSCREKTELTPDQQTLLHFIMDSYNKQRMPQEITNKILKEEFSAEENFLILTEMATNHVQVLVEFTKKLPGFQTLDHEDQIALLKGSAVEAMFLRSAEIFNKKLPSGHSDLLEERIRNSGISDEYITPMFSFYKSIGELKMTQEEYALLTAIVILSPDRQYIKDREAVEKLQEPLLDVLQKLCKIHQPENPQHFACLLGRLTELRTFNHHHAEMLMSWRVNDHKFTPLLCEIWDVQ
Nature of the data set: Agonist activity at human GAL4-FXR-LBD expressed in HEK293T cells assessed as transcriptional activity measured after 16 to 20 hrs by luciferase reporter gene assay. It is filed as cell-based. In general terms: A reporter such as luciferase makes a cellular process visible.

The target of data set [2] is T1, Bile acid receptor. Nature of the data set: Agonist activity at GST-tagged human FXR-LBD in presence of luorescein-SRC2-2 coactivator peptide by TR-FRET assay. In general terms: In TR-FRET formats the signal depends on donor and acceptor labels being close together.
The subject of data set [3] is Mus musculus. The experiment in a line: Anti-nonalcoholic steatohepatitis activity against ccl4-induced C57BL/6J mouse model assessed as clearance of liver steatosis at 30 mg/kg, po qd treated for 28 days. It is filed as functional, organism-based. As to conditions: time 28.0 day.
Data set [4] deals with Mus musculus. The experiment in a line: Anti-nonalcoholic steatohepatitis activity against ccl4-induced C57BL/6J mouse model assessed as decrease in ALT level in liver at 30 mg/kg, po qd treated for 28 days. It is filed as functional, organism-based. To be noted: time 28.0 day.
Data set [5] has as its system Mus musculus. Nature of the data set: Anti-nonalcoholic steatohepatitis activity against ccl4-induced C57BL/6J mouse model assessed as improvement in fibrosis at 30 mg/kg, po qd treated for 28 days. To be noted: time 28.0 day. It is filed as functional, organism-based.
Data set [6] concerns Mus musculus. Nature of the data set: Anti-nonalcoholic steatohepatitis activity against ccl4-induced C57BL/6J mouse model assessed as improvement in liver inflammation at 30 mg/kg, po qd treated for 28 days. It is filed as functional, organism-based. To be noted: time 28.0 day.
Data set [7] concerns Mus musculus. The experiment in a line: Anti-nonalcoholic steatohepatitis activity against ccl4-induced C57BL/6J mouse model assessed as decrease in AST level in liver at 30 mg/kg, po qd treated for 28 days. In kind it is functional, organism-based. As to conditions: time 28.0 day.
The test system of data set [8] is Mus musculus. Nature of the data set: Anti-nonalcoholic steatohepatitis activity against ccl4-induced C57BL/6J mouse model assessed as reduction total cholesterol in serum at 30 mg/kg, po qd treated for 28 days. To be noted: time 28.0 day. It is filed as functional, organism-based.
The nature of data set [9]: Toxicity in C57BL/6J mouse assessed as change in body weight at 30 mg/kg, po qd. To be noted: in vivo. It is filed as organism-based.
A short description of data set [10]: Metabolic stability in dog liver microsomes assessed as half life at 1 uM measured upto 120 mins by UPLC/MS/MS analysis. In kind it is ADME, Canis lupus familiaris, Microsome. In general terms: Microsomes from liver hold many membrane-bound enzymes, among them those of drug oxidation.
A short description of data set [11]: Metabolic stability in human liver microsomes assessed as half life at 1 uM measured upto 120 mins by UPLC/MS/MS analysis. In kind it is ADME, Microsome.
A short description of data set [12]: Metabolic stability in rat liver microsomes assessed as half life at 1 uM measured upto 120 mins by UPLC/MS/MS analysis. In kind it is ADME, Microsome.
A short description of data set [13]: Metabolic stability in cynomolgus monkey liver microsomes assessed as half life at 1 uM measured upto 120 mins by UPLC/MS/MS analysis. In kind it is ADME, Macaca fascicularis, Microsome.
Data set [14] is described as follows: Solubility of the compound in PBS buffer at pH 7.4. In kind it is physicochemical.

In the case of `CC(C)c1onc(-c2c(Cl)cccc2Cl)c1CN1CCN(c2cc3cc(C(=O)O)ccc3s2)CC1`, the concentration giving a half-maximal response (EC50) on Bile acid receptor [1] turned out to be 1.19 µM.

For `CC(C)c1onc(-c2c(Cl)cccc2Cl)c1CN1CCN(c2cc3cc(C(=O)O)ccc3n2C)CC1`, the values for the EC50 at Bile acid receptor [2] and at Bile acid receptor [1] were 0.067 µM and above 5 µM, respectively.

Turning to `COc1cc(C(=O)O)cc2sc(N3CCN(Cc4c(-c5c(Cl)cccc5Cl)noc4C(C)C)CC3(C)C)nc12`, the EC50 at Bile acid receptor [2] amounted to 0.037 µM; on Bile acid receptor [1], 0.127 µM.

Turning to `COc1cc(C(=O)O)cc2sc(N3CCC(Cc4c(-c5c(Cl)cccc5Cl)noc4C(C)C)CC3)nc12`, the results for the EC50 at Bile acid receptor [2] and on Bile acid receptor [1] were 0.028 µM and 0.194 µM, respectively.

As for `COc1cc(C(=O)O)cc2sc(C3CCN(Cc4c(-c5c(Cl)cccc5Cl)noc4C(C)C)C3)nc12` (configuration not stated), the EC50 at Bile acid receptor [2] was 0.266 µM; at Bile acid receptor [1] it was above 5 µM.

For the molecule `CC[C@H]1[C@@H](O)C2[C@@H]3CC[C@H]([C@H](C)CCC(=O)O)[C@@]3(C)CC[C@@H]2[C@@]2(C)CC[C@@H](O)C[C@@H]12` (some centres not stated), the result in the data set with Mus musculus [3], in the data set on Mus musculus [5] and in the data set with Mus musculus [8] was Active. Also, the outcome with Mus musculus [4], in the data set with Mus musculus [6] and in the data set on Mus musculus [7] was inactive. Moreover, the Activity entry in data set [9] is “Non-Toxic”.

`COc1cc(C(=O)O)cc2sc(C3CCN(Cc4c(-c5c(Cl)cccc5Cl)noc4C(C)C)CC3)nc12`: the EC50 is 0.2 µM at Bile acid receptor [2] and above 5 µM on Bile acid receptor [1].

Turning to `CCC1CN(Cc2c(-c3c(Cl)cccc3Cl)noc2C(C)C)CCN1c1nc2c(OC)cc(C(=O)O)cc2s1` (configuration not stated), the EC50 is 0.021 µM at Bile acid receptor [2] and 0.085 µM on Bile acid receptor [1].

Turning to `COc1cc(C(=O)O)cc2sc(N3CCN(Cc4c(-c5c(Cl)cccc5Cl)noc4C4CC4)CC3C)nc12` (configuration not stated), the values for the EC50 at Bile acid receptor [2] and at Bile acid receptor [1] were 0.008 µM and 0.041 µM, respectively.

On to `COc1cc(C(=O)O)cc2sc(N3CCN(Cc4c(-c5c(Cl)cccc5Cl)noc4C(C)C)CC3)nc12`, for which the results for the EC50 on Bile acid receptor [2] and on Bile acid receptor [1] were 0.031 µM and 0.147 µM, respectively.

In the case of `CC(C)c1onc(-c2c(Cl)cccc2Cl)c1CN1CCN(c2nc3cccc(C(=O)O)c3s2)CC1`, on Bile acid receptor [1], the EC50 was above 5 µM.

As to `COc1cc(C(=O)O)cc2sc(N3CCN(Cc4c(-c5c(Cl)cccc5Cl)noc4C4CC4)C[C@@H]3C)nc12`, the half-life at 1 µM in data set [10] worked out at 0.832 h; in data set [11] it was 5.11 h; in [12], 1.83 h; in [13], 1.14 h. Besides, the EC50 at Bile acid receptor [2] turned out to be 0.016 µM; on Bile acid receptor [1], 0.124 µM.

Turning to `COc1cc(C(=O)O)cc2sc(N3CCN(Cc4c(-c5c(Cl)cccc5Cl)noc4C(C)C)CC34CC4)nc12`, the EC50 at Bile acid receptor [1] amounted to 1.24 µM.

As for `C[C@@H]1CN(Cc2c(-c3c(Cl)cccc3Cl)noc2C2CC2)CCN1c1nc2c(F)cc(C(=O)O)cc2s1`, the concentration in solution in [14] (solubility) came to 129 µM (≈ 72.5 µg/mL). Besides, the half-life at 1 µM is 6.67 h in [10], 1.47 h in data set [11], 1.54 h in data set [12] and 1.94 h in [13]. Also, the EC50 at Bile acid receptor [2] was 0.006 µM; on Bile acid receptor [1] it was 0.039 µM.

For `CC(C)c1onc(-c2c(Cl)cccc2Cl)c1CN1CCN(c2nc3ccc(C(=O)O)cc3s2)CC1`, on Bile acid receptor [1], the half-maximal effective concentration (EC50) came out at 0.256 µM.

`COc1cc(C(=O)O)cc2sc(N3CCC(Cc4c(-c5c(Cl)cccc5Cl)noc4C(C)C)C3)nc12` (configuration not stated): the EC50 on Bile acid receptor [2] and on Bile acid receptor [1] was above 5 µM throughout.

For the origin of these results see ChEMBL document CHEMBL5346955, “Discovery of HPG1860, a Structurally Novel Nonbile Acid FXR Agonist Currently in Clinical Development for the Treatment of Nonalcoholic Steatohepatitis” (J Med Chem, 2023).
